Source: paper PMC8799717, “Pharmacological targeting PIKfyve and tubulin as an effective treatment strategy for double-hit lymphoma” (Cell Death Discovery, 2022)

Assays:
Assay in all cases: biochemical
Set-up in all cases: KINOMEscan active-site-directed competition binding panel, 468 kinases, percent of DMSO control at 1 uM
Details in all cases: KINOMEscan binding, percent of DMSO control; read-out: Ctrl%
MARK2 = MARK2 (Homo sapiens, UniProt Q7KZI7)
CAMK2A = CAMK2A (Homo sapiens, UniProt Q9UQM7)
PAK4 = PAK4 (Homo sapiens, UniProt O96013)
PIK3CA(C420R) = PIK3CA(C420R) (Homo sapiens, UniProt P42336, C420R)
[1] = molecular target: T1, RSK4(Kin.Dom.1-N-terminal) (Homo sapiens, UniProt Q9UK32)
T1 construct: gene RPS6KA6; Kin.Dom.1-N-terminal

CHEK1 = CHEK1 (Homo sapiens, UniProt O14757)
ULK1 = ULK1 (Homo sapiens, UniProt O75385)
AKT2 = AKT2 (Homo sapiens, UniProt P31751)
MAP3K4 = MAP3K4 (Homo sapiens, UniProt Q9Y6R4)
LRRK2 = LRRK2 (Homo sapiens, UniProt Q5S007)
ACVR1B = ACVR1B (Homo sapiens, UniProt P36896)
CSNK2A1 = CSNK2A1 (Homo sapiens, UniProt P68400)
RIOK3 = RIOK3 (Homo sapiens, UniProt O14730)
PRKCQ = PRKCQ (Homo sapiens, UniProt Q04759)
AURKB = AURKB (Homo sapiens, UniProt Q96GD4)
KIT(V559D) = KIT(V559D) (Homo sapiens, UniProt P10721, V559D)
PLK3 = PLK3 (Homo sapiens, UniProt Q9H4B4)
CSF1R-autoinhibited = CSF1R-autoinhibited (Homo sapiens, UniProt P07333)
MST4 = molecular target: T2, MST4 (Homo sapiens, UniProt Q9P289)
T2 construct: gene STK26

PDGFRB = PDGFRB (Homo sapiens, UniProt P09619)
EGFR(G719C) = EGFR(G719C) (Homo sapiens, UniProt P00533, G719C)
CDK4 = CDK4 (Homo sapiens, UniProt P11802)
ULK2 = ULK2 (Homo sapiens, UniProt Q8IYT8)
ERBB2 = ERBB2 (Homo sapiens, UniProt P04626)

Sequence of PRKCQ (Q04759 whole entry): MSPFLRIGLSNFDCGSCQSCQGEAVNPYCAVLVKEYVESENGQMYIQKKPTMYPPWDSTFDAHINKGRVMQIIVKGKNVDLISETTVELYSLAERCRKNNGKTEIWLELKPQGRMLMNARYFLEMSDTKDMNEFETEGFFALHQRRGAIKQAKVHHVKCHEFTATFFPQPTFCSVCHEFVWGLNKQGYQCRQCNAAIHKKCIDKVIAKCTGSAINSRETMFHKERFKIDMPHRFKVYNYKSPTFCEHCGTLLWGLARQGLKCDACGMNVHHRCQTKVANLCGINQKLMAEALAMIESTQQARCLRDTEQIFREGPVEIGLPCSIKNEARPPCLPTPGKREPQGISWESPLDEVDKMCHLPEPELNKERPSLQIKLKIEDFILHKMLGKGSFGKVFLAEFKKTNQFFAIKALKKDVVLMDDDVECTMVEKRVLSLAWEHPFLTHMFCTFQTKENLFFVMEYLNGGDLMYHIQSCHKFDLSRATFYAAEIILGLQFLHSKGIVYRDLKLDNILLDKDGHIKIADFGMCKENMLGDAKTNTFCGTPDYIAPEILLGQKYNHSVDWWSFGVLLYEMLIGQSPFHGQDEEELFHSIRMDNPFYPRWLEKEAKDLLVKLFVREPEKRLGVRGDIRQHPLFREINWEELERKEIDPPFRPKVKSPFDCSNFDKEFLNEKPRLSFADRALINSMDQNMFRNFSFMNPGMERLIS
Sequence of RIOK3 (O14730 whole entry): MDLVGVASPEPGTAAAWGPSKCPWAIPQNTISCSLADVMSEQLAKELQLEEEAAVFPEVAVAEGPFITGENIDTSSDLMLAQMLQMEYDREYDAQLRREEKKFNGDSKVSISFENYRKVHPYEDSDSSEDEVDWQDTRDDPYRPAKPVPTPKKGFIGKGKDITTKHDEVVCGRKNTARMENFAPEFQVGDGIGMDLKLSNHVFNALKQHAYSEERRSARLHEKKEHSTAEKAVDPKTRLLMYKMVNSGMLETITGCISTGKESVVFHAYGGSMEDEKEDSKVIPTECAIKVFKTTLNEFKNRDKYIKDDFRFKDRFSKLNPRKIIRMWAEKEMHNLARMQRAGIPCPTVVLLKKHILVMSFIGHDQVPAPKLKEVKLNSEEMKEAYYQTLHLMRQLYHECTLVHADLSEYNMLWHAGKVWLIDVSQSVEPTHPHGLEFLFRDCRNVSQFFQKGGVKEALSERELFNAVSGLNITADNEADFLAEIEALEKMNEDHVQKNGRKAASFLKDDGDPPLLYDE
Sequence of ACVR1B (P36896 whole entry): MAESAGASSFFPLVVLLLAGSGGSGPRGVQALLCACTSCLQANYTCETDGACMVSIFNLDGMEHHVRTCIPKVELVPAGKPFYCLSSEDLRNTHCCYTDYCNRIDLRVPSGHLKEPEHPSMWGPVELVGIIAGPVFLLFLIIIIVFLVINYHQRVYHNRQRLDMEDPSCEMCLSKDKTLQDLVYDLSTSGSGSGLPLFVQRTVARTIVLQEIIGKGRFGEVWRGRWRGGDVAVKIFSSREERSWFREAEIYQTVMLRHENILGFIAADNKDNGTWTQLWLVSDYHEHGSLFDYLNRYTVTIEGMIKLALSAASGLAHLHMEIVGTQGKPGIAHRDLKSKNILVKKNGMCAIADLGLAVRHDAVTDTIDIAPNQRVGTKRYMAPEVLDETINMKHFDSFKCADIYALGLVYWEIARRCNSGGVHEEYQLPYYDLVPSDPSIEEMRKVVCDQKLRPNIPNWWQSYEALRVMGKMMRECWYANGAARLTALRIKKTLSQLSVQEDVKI
Sequence of AKT2 (P31751 whole entry): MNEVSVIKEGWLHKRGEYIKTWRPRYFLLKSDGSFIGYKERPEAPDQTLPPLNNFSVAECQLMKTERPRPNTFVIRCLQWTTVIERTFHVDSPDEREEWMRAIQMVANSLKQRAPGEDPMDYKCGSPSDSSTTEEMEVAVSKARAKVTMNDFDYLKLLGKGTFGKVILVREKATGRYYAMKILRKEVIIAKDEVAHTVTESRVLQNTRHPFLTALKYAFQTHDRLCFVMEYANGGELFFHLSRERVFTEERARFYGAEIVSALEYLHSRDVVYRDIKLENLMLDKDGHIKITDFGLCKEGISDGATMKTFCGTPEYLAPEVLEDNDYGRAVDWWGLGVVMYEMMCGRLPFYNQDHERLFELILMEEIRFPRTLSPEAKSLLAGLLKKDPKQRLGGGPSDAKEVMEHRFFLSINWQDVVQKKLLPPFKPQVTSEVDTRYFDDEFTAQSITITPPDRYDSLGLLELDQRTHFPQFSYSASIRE
Sequence of AURKB (Q96GD4 whole entry): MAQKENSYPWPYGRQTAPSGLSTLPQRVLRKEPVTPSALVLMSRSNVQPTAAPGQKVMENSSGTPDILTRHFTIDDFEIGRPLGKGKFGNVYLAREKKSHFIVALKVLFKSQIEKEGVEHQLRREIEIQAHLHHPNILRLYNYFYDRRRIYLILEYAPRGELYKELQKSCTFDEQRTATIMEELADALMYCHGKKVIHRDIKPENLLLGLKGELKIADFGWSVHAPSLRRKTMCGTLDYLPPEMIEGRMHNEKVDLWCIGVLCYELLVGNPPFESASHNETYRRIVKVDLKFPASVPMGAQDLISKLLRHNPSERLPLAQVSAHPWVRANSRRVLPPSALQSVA
Sequence of CDK4 (P11802 whole entry): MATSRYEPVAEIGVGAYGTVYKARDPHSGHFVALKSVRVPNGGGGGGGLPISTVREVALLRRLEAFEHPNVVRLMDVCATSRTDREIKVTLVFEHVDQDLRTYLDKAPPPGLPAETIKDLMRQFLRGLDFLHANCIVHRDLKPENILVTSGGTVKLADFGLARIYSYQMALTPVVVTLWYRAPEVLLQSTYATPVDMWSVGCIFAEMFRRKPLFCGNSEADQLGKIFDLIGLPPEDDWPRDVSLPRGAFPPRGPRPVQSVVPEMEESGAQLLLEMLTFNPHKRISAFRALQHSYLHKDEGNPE
Sequence of MAP3K4 (Q9Y6R4 whole entry): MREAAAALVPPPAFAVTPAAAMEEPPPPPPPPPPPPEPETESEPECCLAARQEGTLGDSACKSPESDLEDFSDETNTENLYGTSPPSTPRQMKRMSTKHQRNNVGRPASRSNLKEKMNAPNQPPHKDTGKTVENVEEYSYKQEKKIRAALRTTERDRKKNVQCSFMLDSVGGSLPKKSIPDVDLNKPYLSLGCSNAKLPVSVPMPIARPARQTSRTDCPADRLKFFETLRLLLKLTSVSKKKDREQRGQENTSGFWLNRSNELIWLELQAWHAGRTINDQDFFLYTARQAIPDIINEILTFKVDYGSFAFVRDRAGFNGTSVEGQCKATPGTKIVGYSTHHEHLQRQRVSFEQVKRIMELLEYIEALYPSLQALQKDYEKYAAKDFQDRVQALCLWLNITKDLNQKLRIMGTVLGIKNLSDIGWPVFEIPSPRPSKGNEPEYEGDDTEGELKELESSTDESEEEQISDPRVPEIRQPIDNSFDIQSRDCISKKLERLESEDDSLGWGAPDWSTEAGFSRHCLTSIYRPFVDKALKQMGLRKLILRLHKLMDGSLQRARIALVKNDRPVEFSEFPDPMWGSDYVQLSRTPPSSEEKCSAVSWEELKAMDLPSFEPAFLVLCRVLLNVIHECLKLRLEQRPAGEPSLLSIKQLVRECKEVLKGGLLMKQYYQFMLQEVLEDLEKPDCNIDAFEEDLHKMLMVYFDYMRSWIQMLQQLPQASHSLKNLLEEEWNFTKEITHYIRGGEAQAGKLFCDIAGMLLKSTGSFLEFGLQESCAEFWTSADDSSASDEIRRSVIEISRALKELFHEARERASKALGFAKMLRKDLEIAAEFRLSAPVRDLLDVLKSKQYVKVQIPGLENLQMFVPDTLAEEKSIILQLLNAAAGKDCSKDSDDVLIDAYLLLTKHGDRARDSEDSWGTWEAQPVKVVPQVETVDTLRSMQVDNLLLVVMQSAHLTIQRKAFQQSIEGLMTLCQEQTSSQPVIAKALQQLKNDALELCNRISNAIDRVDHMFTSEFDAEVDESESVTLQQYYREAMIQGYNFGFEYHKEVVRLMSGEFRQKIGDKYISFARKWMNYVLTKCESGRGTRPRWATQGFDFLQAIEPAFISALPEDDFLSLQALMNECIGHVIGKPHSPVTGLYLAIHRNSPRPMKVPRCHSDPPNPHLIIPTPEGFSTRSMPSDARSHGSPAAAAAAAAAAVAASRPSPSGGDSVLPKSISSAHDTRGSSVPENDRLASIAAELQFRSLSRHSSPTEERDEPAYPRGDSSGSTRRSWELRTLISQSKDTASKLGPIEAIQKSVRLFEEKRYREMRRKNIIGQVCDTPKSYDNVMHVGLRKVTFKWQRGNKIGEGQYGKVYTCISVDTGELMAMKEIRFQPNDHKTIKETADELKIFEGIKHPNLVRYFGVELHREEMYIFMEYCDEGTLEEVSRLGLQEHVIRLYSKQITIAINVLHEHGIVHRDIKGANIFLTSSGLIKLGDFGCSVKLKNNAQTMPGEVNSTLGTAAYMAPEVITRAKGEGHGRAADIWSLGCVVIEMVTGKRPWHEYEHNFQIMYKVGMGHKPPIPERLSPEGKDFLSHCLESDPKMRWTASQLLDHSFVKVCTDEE
Sequence of CHEK1 (O14757 whole entry): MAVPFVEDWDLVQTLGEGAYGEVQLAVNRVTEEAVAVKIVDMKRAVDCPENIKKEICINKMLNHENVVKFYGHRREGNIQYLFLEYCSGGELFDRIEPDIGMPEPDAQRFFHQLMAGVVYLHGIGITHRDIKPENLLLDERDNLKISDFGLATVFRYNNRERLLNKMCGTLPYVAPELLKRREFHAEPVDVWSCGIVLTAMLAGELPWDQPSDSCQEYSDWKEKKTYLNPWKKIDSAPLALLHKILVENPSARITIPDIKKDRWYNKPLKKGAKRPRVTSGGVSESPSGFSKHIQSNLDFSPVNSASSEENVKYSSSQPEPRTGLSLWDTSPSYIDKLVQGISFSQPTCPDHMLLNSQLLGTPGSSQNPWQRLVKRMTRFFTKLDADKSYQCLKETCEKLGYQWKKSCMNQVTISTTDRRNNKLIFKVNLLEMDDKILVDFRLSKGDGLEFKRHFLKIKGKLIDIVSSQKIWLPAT

SMILES: Cc1ccc(NC(=O)c2cccc(C(F)(F)F)c2)cc1Nc1cc(-c2cccnc2)nc2[nH]ccc12 [HZX-02-059]
- remaining binding at 1 µM (MARK2): 78%
- remaining binding at 1 µM (CAMK2A): 98%
- remaining binding at 1 µM (PAK4): 95%
- remaining binding at 1 µM (PIK3CA(C420R)): 100%
- remaining binding at 1 µM [1]: 79%
- remaining binding at 1 µM (CHEK1): 88%
- remaining binding at 1 µM (ULK1): 97%
- remaining binding at 1 µM (AKT2): 85%
- remaining binding at 1 µM (MAP3K4): 100%
- remaining binding at 1 µM (LRRK2): 100%
- remaining binding at 1 µM (ACVR1B): 72%
- remaining binding at 1 µM (CSNK2A1): 81%
- remaining binding at 1 µM (RIOK3): 100%
- remaining binding at 1 µM (PRKCQ): 88%
- remaining binding at 1 µM (AURKB): 100%
- remaining binding at 1 µM (KIT(V559D)): 0.9%
- remaining binding at 1 µM (PLK3): 93%
- remaining binding at 1 µM (CSF1R-autoinhibited): 93%
- remaining binding at 1 µM (MST4): 80%
- remaining binding at 1 µM (PDGFRB): 3.3%
- remaining binding at 1 µM (EGFR(G719C)): 96%
- remaining binding at 1 µM (CDK4): 100%
- remaining binding at 1 µM (ULK2): 99%
- remaining binding at 1 µM (ERBB2): 95%
